We go through 1 molecule from patent US20260294928A1, “BTK INHIBITOR FOR TREATING MULTIPLE SCLEROSIS” (BIOGEN MA INC., priority 2023, published 2026).

A short description of data set [1]: Part 1 PK study of BIIB091 formulations and regimens in healthy subjects. Format: in vivo, human. As to the method: (§1) In a single center, open-label study, several formulations and treatment regimens were explored to reduce pharmacokinetic (PK) variability and achieve steady state Ctrough>221 ng/mL while limiting the drug exposure (Cmax). The study included 3 parts.
(§2) IR tablet (50 mg) was tested in 19 healthy subjects at different dose levels (150, 250 and 350 mg) and in the fed (moderate fat and high fat) and fasted state and as a divided daily dose (12 h apart). Subject were treated with BIIB091 up to 4 periods. To facilitate comparisons between different regimens, subjects were randomized into 2 groups (Group 1 and Group 2) pre-dose on Day 1 in Periods 1, 3 and 4. Period 2 was utilized as a reference period, where all subjects were dosed with the BIIB091 IR DiC (drug in capsule).

Another data set has as its target CYP3A4 (Homo sapiens, UniProt P08684). The data set can be described thus: Part 2 PK of BIIB091 with CYP3A4 inhibitor itraconazole, fed. Format: in vivo. As to conditions: role: substrate, 200 mg BIIB091 IR tablet. The protocol: (§3) A new cohort of 12 healthy male and female (non pregnant and non-lactating) subjects were enrolled and dosed. Subjects were randomized into two groups of 6 subjects, to receive the regimen sequence MNO across 3 study periods (Group 1) or regimen sequence MNP across 3 study periods (Group 2). Both groups were dosed in the fed state in Periods 1 and 2, i.e. BIIB091 alone in the fed state in Period 1, and BIIB091 with the CYP3A4 inhibitor itraconazole in the fed state in Period 2. For the PPI assessment in Period 3, subjects were dosed with BIIB091 co-administered with rabeprazole in the fasted or fed state in order to assess PK under each of these conditions.

A short description of data set [2]: Part 2 PK of BIIB091 with PPI rabeprazole, fasted or fed. As to conditions: 200 mg BIIB091 IR tablet with rabeprazole 20 mg. Format: in vivo, human. As to the method: as §3
For data set [3], the system named is CD69 upregulation on total B cells (CD19+). The experiment in a line: CD69 inhibition on ex vivo stimulated total B cells (CD19+), Part 3. Format: in vivo, human. The following applies: for inhibition at 250 mg: Homo sapiens, B-cell, 250 mg BID. The protocol:
(§4) 250 mg BIIB091 was dosed in a new cohort of 10 healthy subjects twice a day (BID) 12 h apart with a moderate fat meal for 7 days. […] Geomean Ctau (CV %) was 407 (48.3%) ng/mL which exceeded the target of >221 ng/mL, with 9/10 subjects achieving the target.

Data set [4] is described as follows: Part 3 multiple dose PK, 250 mg BID x 7 days with moderate fat meal. Format: in vivo, human. As to conditions: 250 mg BID 12 h apart x 7 days. As to the method: as §4
A short description of data set [5]: Part 1 safety and tolerability in healthy subjects. As to conditions: all regimens tested, Part 1 (150, 250, 350 mg; fed, fasted, divided dose). Format: in vivo, human. The protocol:
as §1, §2

Like-named read-outs stand apart in the source and are kept apart here.

Chain of CYP3A4 (P08684 whole entry): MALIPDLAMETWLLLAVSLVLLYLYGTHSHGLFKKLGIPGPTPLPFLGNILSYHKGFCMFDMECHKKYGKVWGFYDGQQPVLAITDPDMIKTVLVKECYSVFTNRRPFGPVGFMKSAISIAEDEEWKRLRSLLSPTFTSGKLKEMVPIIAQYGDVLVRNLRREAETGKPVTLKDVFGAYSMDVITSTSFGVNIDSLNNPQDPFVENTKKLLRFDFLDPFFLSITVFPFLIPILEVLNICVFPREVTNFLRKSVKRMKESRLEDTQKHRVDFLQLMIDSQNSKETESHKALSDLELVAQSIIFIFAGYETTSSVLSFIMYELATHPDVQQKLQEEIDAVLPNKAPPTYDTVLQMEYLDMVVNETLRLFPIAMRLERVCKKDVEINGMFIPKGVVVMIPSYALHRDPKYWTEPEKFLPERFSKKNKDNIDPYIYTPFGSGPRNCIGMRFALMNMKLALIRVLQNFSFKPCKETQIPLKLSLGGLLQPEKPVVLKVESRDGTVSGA

`Cn1cc(Nc2nccc(-c3ccc4c(c3)CN(C3COC3)CC[C@H]4NC(=O)c3cn(C(C)(C)C)nn3)n2)cn1` [Compound 1, (R)-1-(tert-butyl)-N-(8-(2-((1-methyl-1H-pyrazol-4-yl)amino)pyrimidin-4-yl)-2-(oxetan-3-yl)-2,3,4,5-tetrahydro-1H-benzo[c]azepin-5-yl)-1H-1,2,3-triazole-4-carboxamide]: in data set [1] (high fat food), the “C (Cmax) with HF food” value is “reduced” and the “T (Tmax) with HF food” value was “delayed”. In data set [1] (moderate fat meal), the “AUC with MF meal” value is recorded as “similar”, the “C with MF meal” value is “similar” and the “Tmax with MF meal compared to HF” value is reported as “less of a delay in Tmax compared to high fat”. For the same molecule, the CYP3A4 substrate entry at CYP3A4 (fed, with itraconazole 200 mg) was “moderate CYP3A4 substrate”. Also, the “BIIB091 exposure with CYP3A4 inhibitor co-administration” value at CYP3A4 (inhibitor itraconazole 200 mg, moderate-fat fed) is given as “increased”. Also, in data set [2] (fasted), the “BIIB091 bioavailability with PPI co-administration, fasted state” value is “decreased”. The “BIIB091 bioavailability with PPI together with food, compared with fasted condition” value in data set [2] (moderate-fat fed) was “increased”. Also, in data set [3] (250 mg BID x 7 days, 24 h post final dose), the “CD69 inhibition at 24 h post final dose” value is on record as “returned to baseline”. Also, the inhibition at 250 mg in data set [3] (12 h post-dose, day 1, read-out: CD69 mean inhibition) came out at 86.8%. In addition, in data set [3] (12 h post-dose, day 7, read-out: CD69 mean inhibition), the inhibition at 250 mg amounted to 85.4%. Moreover, in data set [3] (Day 1 and 7, from 1 h to 8 h post-dose, ex vivo stimulated B cells, read-out: CD69 inhibition range), the inhibition at 250 mg was 96.5 to 99.2%. The inhibition at 250 mg in data set [3] (Day 1 and 7, from 1 h to 8 h post-dose, ex vivo stimulated B cells, read-out: mean inhibition of CD69 upregulation from Day 1 pre-dose baseline) is more than 90%. Also, in data set [4], the “accumulation ratio for AUCtau” value is listed as 1.75, the “accumulation ratio for Cmax” value was 1.49 and the “subjects achieving the target Ctau of >221 ng/mL” value was 9/10. For the same molecule, the concentration at 12 h in data set [4] (human, in vivo, po, read-out: Geomean Ctau (CV %)) worked out at 407 ng/mL. Further, the safety and tolerability entry in data set [5] is “generally safe and well tolerated”.
